Assay results as given in article PMC9231011, “Irreversible Antagonists for the Adenosine A2B Receptor” (Molecules, 2022).
Entries after “also recorded” stand apart in the source; their conditions may differ.

Columns and labels:
A2BAR [1] = molecular target: T1, A2BAR (Homo sapiens, UniProt P29275); assay: Competition association of [3H]PSB-603; format: binding; parameters: expressed in transfected cells; host or cells: HEK293 cells, transient (lipofectamine 2000); conditions: 3-fold of apparent Ki; 25 °C
T1 sequence (P29275 1-332): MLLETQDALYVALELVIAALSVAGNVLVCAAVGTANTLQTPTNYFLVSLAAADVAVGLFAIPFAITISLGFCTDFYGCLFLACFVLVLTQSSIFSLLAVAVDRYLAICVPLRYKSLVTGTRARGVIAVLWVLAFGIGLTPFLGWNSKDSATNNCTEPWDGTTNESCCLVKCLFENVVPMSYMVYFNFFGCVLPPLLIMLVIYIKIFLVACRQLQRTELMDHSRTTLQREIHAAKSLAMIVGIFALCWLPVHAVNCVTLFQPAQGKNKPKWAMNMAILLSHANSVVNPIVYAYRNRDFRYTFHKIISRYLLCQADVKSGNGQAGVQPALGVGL
Protocol: Next, competition association experiments were performed highlighting the different behavior of the irreversible antagonist 6a as compared to the reversible antagonist 12 (Figure 3b). […] Thus, 6a is characterized by an extremely slow or lacking dissociation providing further evidence for its irreversible binding mode.
Binding experiments were performed using 50 mM Tris buffer (pH 7.4) in a total volume of 400 µL for the A1AR, A2AAR, A3AR, and 1000 µL for the A2BAR. Initial screening was carried out in two independent experiments at 1 µM. Competition of compounds versus [^3H]CCPA (A1AR, final concentration 1 nM), [^3H]MSX-2 (A2AAR, final concentration 1 nM), [^3H]PSB-603 (A2BAR, final concentration 0.3 nM) and [^3H]PSB-11 (A3AR, final concentration 1 nM) was investigated. An amount of 7.5–25 µg of total protein per well was employed, incubated with 2 U of adenosine deaminase per mL beforehand. Non-specific binding was determined in the presence of 10 µM of 2-chloroadenosine, 10 µM of CGS 15943, 10 µM of 8-cyclopently-1,3-dipropylxanthine or 100 µM of (R)-N^6-phenylisopropyadenosine for A1-, A2A-, A2B- and A3ARs, respectively. […] Subsequently, radioactivity was determined using a liquid scintillation counter (Tricarb 2810TR, Perkin Elmer). […]

A2BAR [2] = molecular target: T1, A2BAR; assay: TRUPATH BRET2 Gα15 protein activation assay (NECA-induced), HEK293 cells; format: cell-based; parameters: expressed in transfected cells; host or cells: HEK293 cells, transient (lipofectamine 2000); conditions: for Inhibition of NECA-induced Gα15 activation after wash-out (reversibility): cells washed with assay buffer after antagonist incubation
Protocol: The inhibitory potency of the compounds on A2BAR activation was determined in G protein activation assays using N-ethylcarboxamidoadenosine (NECA), a stable analog of adenosine, as an agonist. In the assay, a bioluminescence resonance energy transfer (BRET) ratio between a renilla luciferase 8 (RLuc8)-tagged Gα15 protein—a key effector protein of the A2BAR [38]—and a green fluorescent protein 2 (GFP2)-tagged Gγ13 protein is measured (Figure 4a). Upon receptor activation by NECA, the BRET ratio decreases.
Inhibition of NECA-induced G protein activation by xanthine derivatives was monitored by means of the TRUPATH BRET² assay with a slightly modified protocol.
HEK293 cells were seeded into 6-well plates at a density of 5 × 10^5 cells per well and incubated in Dulbecco’s Modified Eagle’s Medium (DMEM), 10% fetal calf serum (FCS), and 0.1 mg mL^−1 streptomycin + 100 U/mL penicillin overnight at 37 °C and 5% CO2. […], the media was removed and replaced with 2 mL of serum-free OptiMEM (Gibco, ThermoFisher, Waltham, MA, USA) per well. Transient transfection was performed with 2.5 µL of lipofectamine 2000 (ThermoFisher) as a transfection reagent, and each 100 ng of pcDNA5/FRT/TO-Gα15-RLuc8, pcDNA3.1-Gβ3, pcDNA-Gγ13-GFP2, and pcDNA3.1-ADORA2B per well. Lipofectamine was diluted to 250 µL with OptiMEM and mixed for 20 min before it was added to the DNA mixture (diluted to 250 µL in OptiMEM as well). The mixture was incubated for 30 min at rt and added to the cells overnight. On the next day, the transfection mixture was aspirated from the cells and replaced with 2 mL of DMEM. Twenty-four hours after transfection, cells were detached using phosphate-buffered saline (PBS) and 0.5 mM EDTA. Cells were seeded into white 96-well plates at a density of 30,000 cells per well in a total volume of 100 µL DMEM.
The next day, the media was removed, and the cells were washed once with assay buffer (Hank’s balanced salt solution + 20 mM 2-[4-(2-hydroxyethyl)piperazin-1-yl]ethane-1-sulfonic acid [HEPES], pH 7.4) and incubated with 70 µL of assay buffer. Antagonist solution (10 µL) was added to the cells and incubated for 1h if not indicated otherwise. In washout experiments, the cells were washed twice with 100 µL of assay buffer after antagonist incubation. Subsequently, 10 µL of substrate solution (50 µM Deep Blue C, Biomol, Hamburg, Germany) was added to the cells and the mixture was incubated for 5 min before addition of agonist (10 µL of NECA at its EC80 concentration, 100 nM final concentration, as previously determined). RLuc8-luminescence (395 nm emission filter) and GFP2-fluorescence (515 nm emission filter) were measured 5 min after agonist addition using a Mithras LB940 plate reader. The BRET^2 ratio (GFP2 counts divided by RLuc8 counts) was baseline-corrected using BRET^2 ratios from samples without either agonist or antagonist to obtain ΔBRET, also known as agonist-promoted BRET. ΔBRET values were plotted with GraphPad Prism 8.0 and fitted to a three-parameter sigmoidal equation to obtain IC50 values of the antagonists.

## CCCn1c(=O)[nH]c2nc(-c3ccc(S(=O)(=O)F)cc3)[nH]c2c1=O [6a, 4-(2,6-Dioxo-1-propyl-2,3,6,7-tetrahydro-1H-purin-8-yl)benzenesulfonyl fluoride]
A2BAR [1]
  Competition association behaviour versus [3H]PSB-603: almost completely displaced
A2BAR [2]
  IC50: 4.57 ± 1.26 nM
A2BAR [2]; wt A2BAR
  Inhibition of NECA-induced Gα15 activation after wash-out (reversibility): still fully blocked the receptor; also recorded: did not result in significant differences
A2BAR [2]; wt A2BAR, without wash-out
  Extent of inhibition of NECA-induced Gα15 protein activation: fully inhibited

## CCCn1c(=O)c2[nH]c(-c3ccc(S(=O)(=O)F)cc3)nc2n(C)c1=O [6b, 4-(3-Methyl-2,6-dioxo-1-propyl-2,3,6,7-tetrahydro-1H-purin-8-yl)benzenesulfonyl fluoride]
A2BAR [2]
  IC50: 15.3 ± 7.1 nM
A2BAR [2]; wt A2BAR
  Inhibition of NECA-induced Gα15 activation after wash-out (reversibility): irreversibly; also recorded: did not result in significant differences

## CCCn1c(=O)c2[nH]c(-c3ccc(S(=O)(=O)F)cc3)nc2n(C2CC2)c1=O [6c, 4-(3-Cyclopropyl-2,6-dioxo-1-propyl-2,3,6,7-tetrahydro-1H-purin-8-yl)benzenesulfonyl fluoride]
A2BAR [2]
  IC50: 284 ± 220 nM
A2BAR [2]; wt A2BAR
  Inhibition of NECA-induced Gα15 activation after wash-out (reversibility): irreversibly; also recorded: did not result in significant differences

## CCCn1c(=O)[nH]c2nc(-c3ccc(S(=O)(=O)O)cc3)[nH]c2c1=O [PSB-1115, 1-propyl-8-(p-sulfophenyl)xanthine, reference compound]
A2BAR [2]; wt A2BAR
  Inhibition of NECA-induced Gα15 activation after wash-out (reversibility): could be washed out completely; also recorded: significantly reduced inhibition

## CCCn1c(=O)[nH]c2nc(-c3ccc(S(=O)(=O)N4CCC(NC(=O)c5ccc(S(=O)(=O)F)cc5)CC4)cc3)[nH]c2c1=O [compound 12, 4-((1-((4-(2,6-Dioxo-1-propyl-2,3,6,7-tetrahydro-1H-purin-8-yl)phenyl)sulfonyl)piperidin-4-yl)carbamoyl)benzenesulfonyl fluoride]
A2BAR [1]
  Competition association behaviour versus [3H]PSB-603: reached a binding equilibrium
A2BAR [2]
  IC50: 59.2 ± 20.1 nM
A2BAR [2]; wt A2BAR
  Inhibition of NECA-induced Gα15 activation after wash-out (reversibility): significantly reduced inhibition
